Activity calls are given as the source filed them.
Tests used:
[1] = HEK-293T viability loss after treatment – luminescence, T-cell screen hits, cytotoxicity control for TCR NF-kB inhibitor project, dose response (AID 489026); format: functional, cell-based;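 note: cells exposed to compound about 14 hours before the viability readout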
[2] = target: Glyceraldehyde-3-phosphate dehydrogenase (Homo sapiens, UniProt P04406)
[3] = Trypanosoma cruzi growth suppression in host cells – NIH3T3 host cells, beta-gal luminescence, confirmation (AID 2044); format: functional, cell-based;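 note: intracellular parasites grown in NIH/3T3 mouse fibroblasts as host cells; luminescent beta-galactosidase reporter signal from transgenic T. cruzi replicating inside host cells; inhibitors lower the luminescence signal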
[4] = NIH3T3 cell viability loss – ATP luminescence, mouse fibroblasts, counter-screen, dose response (AID 2010); format: functional, cell-based;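 note: cells exposed to compound for about 90 hours before reading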
cells [5] = assay: cells
Prothrombin = Prothrombin (Homo sapiens, UniProt P00734); assay: Thrombin 1536 HTS Dose Response Confirmation. [Related pubchem assays: 1046 (Thrombin 1536 HTS; hits were confirmed in this assay)]; format: functional
cells [6] = format: functional, cell-based
Cytochrome P450 2C9 = Cytochrome P450 2C9 (Homo sapiens, UniProt P11712)
Chain of Cytochrome P450 2C9 (P11712 whole entry): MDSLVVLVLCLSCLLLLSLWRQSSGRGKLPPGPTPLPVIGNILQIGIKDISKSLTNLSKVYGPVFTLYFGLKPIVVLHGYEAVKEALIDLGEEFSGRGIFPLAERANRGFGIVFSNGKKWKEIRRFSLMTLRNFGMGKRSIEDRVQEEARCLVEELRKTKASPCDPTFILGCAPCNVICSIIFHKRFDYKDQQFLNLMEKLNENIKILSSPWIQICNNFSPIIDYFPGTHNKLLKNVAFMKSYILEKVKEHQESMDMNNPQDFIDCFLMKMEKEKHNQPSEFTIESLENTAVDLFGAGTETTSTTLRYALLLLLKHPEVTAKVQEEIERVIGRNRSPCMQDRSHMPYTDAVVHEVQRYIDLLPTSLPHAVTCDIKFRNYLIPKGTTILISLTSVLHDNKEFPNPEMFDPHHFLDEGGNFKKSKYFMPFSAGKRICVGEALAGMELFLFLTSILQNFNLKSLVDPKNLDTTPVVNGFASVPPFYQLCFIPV

cells [7] = format: functional, cell-based; remark: listed apart in the source
Cytochrome P450 3A4 = Cytochrome P450 3A4 (Homo sapiens, UniProt P08684);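 note: CYP3A4 tested as one member of a cytochrome P450 panel screen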
Chain of Cytochrome P450 3A4 (P08684 whole entry): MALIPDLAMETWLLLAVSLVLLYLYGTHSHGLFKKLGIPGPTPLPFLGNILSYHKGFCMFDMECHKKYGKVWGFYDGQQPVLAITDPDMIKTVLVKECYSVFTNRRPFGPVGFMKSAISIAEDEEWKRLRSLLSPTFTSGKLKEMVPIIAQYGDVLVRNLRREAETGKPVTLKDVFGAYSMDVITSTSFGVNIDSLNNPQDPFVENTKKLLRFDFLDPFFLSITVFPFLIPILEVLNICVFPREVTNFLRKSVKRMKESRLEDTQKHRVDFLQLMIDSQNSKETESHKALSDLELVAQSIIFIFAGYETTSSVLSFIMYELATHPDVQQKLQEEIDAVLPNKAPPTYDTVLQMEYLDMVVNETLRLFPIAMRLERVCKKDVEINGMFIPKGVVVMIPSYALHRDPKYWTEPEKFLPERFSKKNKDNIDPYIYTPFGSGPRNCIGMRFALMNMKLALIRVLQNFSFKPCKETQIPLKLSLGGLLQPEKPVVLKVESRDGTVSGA

Cytochrome P450 2D6 = Cytochrome P450 2D6 (Homo sapiens, UniProt P10635);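 note: CYP2D6 member of a cytochrome P450 panel assay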
Chain of Cytochrome P450 2D6 (P10635 whole entry): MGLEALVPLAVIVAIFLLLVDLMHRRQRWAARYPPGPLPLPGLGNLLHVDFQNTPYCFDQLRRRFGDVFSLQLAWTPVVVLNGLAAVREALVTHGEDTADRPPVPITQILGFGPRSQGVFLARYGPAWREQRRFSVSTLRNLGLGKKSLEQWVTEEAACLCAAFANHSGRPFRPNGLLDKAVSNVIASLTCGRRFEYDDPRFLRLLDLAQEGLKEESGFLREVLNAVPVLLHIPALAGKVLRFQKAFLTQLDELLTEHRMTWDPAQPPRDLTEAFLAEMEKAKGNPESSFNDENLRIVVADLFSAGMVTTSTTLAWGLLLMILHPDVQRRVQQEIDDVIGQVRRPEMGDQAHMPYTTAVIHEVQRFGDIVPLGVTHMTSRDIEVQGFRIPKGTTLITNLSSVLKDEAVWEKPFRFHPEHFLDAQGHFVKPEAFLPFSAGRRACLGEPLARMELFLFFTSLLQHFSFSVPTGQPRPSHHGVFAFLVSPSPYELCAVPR

Estrogen receptor = target: T1, Estrogen receptor (Homo sapiens, UniProt P03372);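 note: potency for inhibiting coactivator peptide recruitment to the receptor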
T1 sequence (P03372 whole entry): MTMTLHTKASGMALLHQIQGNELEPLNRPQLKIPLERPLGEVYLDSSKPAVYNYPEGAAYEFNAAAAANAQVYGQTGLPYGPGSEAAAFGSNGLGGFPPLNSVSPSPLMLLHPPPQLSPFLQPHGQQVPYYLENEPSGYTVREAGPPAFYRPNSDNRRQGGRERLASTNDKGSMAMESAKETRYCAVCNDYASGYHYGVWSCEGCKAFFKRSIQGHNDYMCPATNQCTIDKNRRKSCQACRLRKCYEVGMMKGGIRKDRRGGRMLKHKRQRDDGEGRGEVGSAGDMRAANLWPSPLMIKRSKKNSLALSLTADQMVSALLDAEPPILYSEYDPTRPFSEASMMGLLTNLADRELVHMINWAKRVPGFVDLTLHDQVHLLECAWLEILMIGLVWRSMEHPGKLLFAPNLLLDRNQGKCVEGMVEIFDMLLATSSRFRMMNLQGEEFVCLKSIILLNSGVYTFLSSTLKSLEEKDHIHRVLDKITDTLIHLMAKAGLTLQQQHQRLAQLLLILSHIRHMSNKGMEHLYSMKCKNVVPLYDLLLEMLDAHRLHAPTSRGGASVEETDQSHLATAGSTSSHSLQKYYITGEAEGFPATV

Chain of Glyceraldehyde-3-phosphate dehydrogenase (P04406 whole entry): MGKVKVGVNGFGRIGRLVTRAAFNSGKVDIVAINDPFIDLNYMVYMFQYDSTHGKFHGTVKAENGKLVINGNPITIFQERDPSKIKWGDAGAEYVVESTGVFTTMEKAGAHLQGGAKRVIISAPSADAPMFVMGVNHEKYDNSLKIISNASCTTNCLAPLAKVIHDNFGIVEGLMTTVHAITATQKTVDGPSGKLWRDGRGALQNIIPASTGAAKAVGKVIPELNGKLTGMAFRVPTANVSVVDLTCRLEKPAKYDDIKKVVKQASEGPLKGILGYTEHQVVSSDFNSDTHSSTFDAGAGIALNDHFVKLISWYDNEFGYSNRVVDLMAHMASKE

Q: For COc1cc(C(=O)OCCc2cc3ccccc3c(=O)o2)cc(OC)c1OC, which IC50 [1] is on record?
A: The IC50 was 69.5 µM (inactive).

Q: With COc1cc(/C=C2/SC(=S)NC2=O)cc(Cl)c1OCc1cccc2ccccc12 as the compound, how does the IC50 [2] read?
A: The IC50 was > 100 µM (not active).

Q: Which EC50 [3] does the source give for CN1CCc2c(sc3c2c(=O)n(-c2ccccc2)c2nnc(SCc4ccccc4)n32)C1 here?
A: The EC50 was < 0.1 µM (active).

Q: What about the EC50 [4] of the same compound?
A: Its EC50 is > 60 µM (not active).

Q: What about the EC50 (cells [5]) of the same compound?
A: Its EC50 is 0.015 µM (active).

Q: Which IC50 (Prothrombin) does the source give for CCC(=O)Nc1cccc(C(=O)OCc2cccc([N+](=O)[O-])c2)c1 here?
A: The IC50 was > 50 µM (not active).

Q: For Cc1cccc(N2C(=O)C(Cl)=C(N3CCN[C@H](C)C3)C2=O)c1, which IC50 [2] is on record?
A: The IC50 was > 50 µM (inconclusive).

Q: For CCOc1nc(NCCN2CCOCC2)nc(Nc2ccc(C)cc2)n1, which EC50 (cells [6]) is on record?
A: The EC50 was > 350 µM (not active).

Q: What about the IC50 (Prothrombin) of the same compound?
A: Its IC50 is > 50 µM (not active).

Q: What about the AC50 (Cytochrome P450 2C9) of the same compound?
A: Its AC50 is 11.2 µM (inconclusive).

Q: And the EC50 (cells [7])?
A: The EC50 was > 350 µM (not active).

Q: What about the AC50 (Cytochrome P450 3A4) of the same compound?
A: The AC50 was 15.8 µM (inconclusive).

Q: What about the AC50 (Cytochrome P450 2D6) of the same compound?
A: The AC50 was 11.2 µM (inconclusive).

Q: For CS(=O)(=O)c1ccc2nc(NC(=O)CCC(=O)c3cccs3)sc2c1, which IC50 (Estrogen receptor) is on record?
A: Its IC50 is 7.11 µM (active).

Q: With Cc1ccc2c(CN3CCN(Cc4ccccc4)CC3)cc(=O)oc2c1 as the compound, how does the EC50 [3] read?
A: The EC50 was < 0.1 µM (active).

Q: And the EC50 [4]?
A: Its EC50 is > 60 µM (not active).

Q: What about the EC50 (cells [5]) of the same compound?
A: Its EC50 is 0.049 µM (active).

Q: For Nc1nnc(SCCCC(=O)c2ccccc2)s1, which IC50 (Prothrombin) is on record?
A: The IC50 was > 50 µM (not active).

Reference: ChEMBL document CHEMBL1201862, “PubChem BioAssay data set” (2004)
